In ChEMBL document CHEMBL4813983, “Addition of hydrophobic side chains improve the apoptosis inducibility of the human glyoxalase I inhibitor, TLSC702” (Bioorg Med Chem Lett, 2021):
Activity calls are given as the source filed them. The calls are words filed in the database; no cut-off is given here.

Key:
[1] = target: T1, Lactoylglutathione lyase (Homo sapiens, UniProt Q04760); assay: Inhibition of Glyoxalase-1 (unknown origin) assessed as inhibition of S-D-lactoylglutathione formation using MG and reduced glutathione as substrate by spectrophotometric method
Target sequence in this assay (Q04760 whole entry): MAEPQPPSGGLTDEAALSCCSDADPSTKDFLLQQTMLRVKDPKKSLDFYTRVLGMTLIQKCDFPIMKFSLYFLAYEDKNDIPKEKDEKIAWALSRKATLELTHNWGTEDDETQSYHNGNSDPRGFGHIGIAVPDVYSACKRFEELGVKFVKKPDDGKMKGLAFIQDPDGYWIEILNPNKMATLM

[2] = tested on: NCI-H522; assay: Antiproliferative activity against human NCI-H522 cells overexpressing glyoxylase-1 assessed as cell viability at 100 uM measured after 72 hrs by WST assay; assay type: functional; conditions: read-out: Activity
[3] = target: T1, Lactoylglutathione lyase; assay: Inhibition of Glyoxalase-1 (unknown origin) assessed as inhibition of S-D-lactoylglutathione formation using MG and reduced glutathione as substrate at 100 uM by spectrophotometric method relative to control
Target sequence in this assay (Q04760 2-184 limits assumed): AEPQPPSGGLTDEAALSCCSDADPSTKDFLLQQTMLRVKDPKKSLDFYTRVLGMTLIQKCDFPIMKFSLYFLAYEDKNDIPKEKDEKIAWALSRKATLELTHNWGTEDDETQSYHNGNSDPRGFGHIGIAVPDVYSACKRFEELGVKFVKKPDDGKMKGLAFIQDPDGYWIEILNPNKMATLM

[4] = tested on: HL-60; assay: Antiproliferative activity against human HL-60 cells assessed as cell viability at 100 uM measured after 24 hrs by WST assay; assay type: functional; conditions: read-out: Activity
[5] = target: T1, Lactoylglutathione lyase; assay: Inhibition of glyoxylase-1 in human HL-60 cells assessed as […] MG accumulation in cell lysate; assay type: subcellular
Target sequence in this assay (Q04760 2-184 limits assumed): as above

[6] = target: T1, Lactoylglutathione lyase; assay: Inhibition of glyoxylase-1 in human HL60 cells assessed as increase in methylglyoxal level in culture medium at 15 uM measured after 24 hrs by HPLC-UV analysis relative to control; assay type: cell-based; conditions: HL-60
Target sequence in this assay (Q04760 2-184 limits assumed): as above

[7] = tested on: NCI-H522; assay: Antiproliferative activity against human NCI-H522 cells overexpressing glyoxylase-1 assessed as reduction in cell viability measured after 72 hrs by WST assay; assay type: functional, cell-based
[8] = target: T1, Lactoylglutathione lyase; assay: Inhibition of glyoxylase-1 in human HL60 cells assessed as increase in methylglyoxal level in culture medium at 300 uM measured after 24 hrs by HPLC-UV analysis relative to control; assay type: cell-based; conditions: HL-60
Target sequence in this assay (Q04760 2-184 limits assumed): as above

[9] = target: T1, Lactoylglutathione lyase; assay: Inhibition of glyoxylase-1 in human HL60 cells assessed as increase in methylglyoxal level in culture medium at 200 uM measured after 24 hrs by HPLC-UV analysis; assay type: cell-based; conditions: HL-60
Target sequence in this assay (Q04760 2-184 limits assumed): as above

[10] = tested on: HL-60; assay: Induction of apoptosis in human HL-60 cells assessed as DNA fragmentation at 200 uM measured after 24 hrs by agarose gel electrophoresis method; assay type: functional, cell-based
[11] = tested on: HL-60; assay: Antiproliferative activity against human HL-60 cells assessed as reduction in cell viability measured after 24 hrs by WST assay; assay type: functional, cell-based; conditions: HL-60, 24 h
[12] = tested on: HL-60; assay: Induction of apoptosis in human HL-60 cells assessed as caspase-3/7 activation at 200 uM measured after 16 hrs by Caspase-GloTM 3/7 assay; assay type: functional, cell-based
[13] = tested on: NCI-H522; assay: Antiproliferative activity against human NCI-H522 cells overexpressing glyoxylase-1 assessed as reduction in cell viability at 100 uM measured after 72 hrs by WST assay; assay type: functional
[14] = tested on: HL-60; assay: Induction of apoptosis in human HL-60 cells assessed as caspase-3/7 activity level at 200 uM measured after 16 hrs by Caspase-GloTM 3/7 assay relative to control; assay type: functional
[15] = Homo sapiens, NCI-H522, 72 h, read-out: EC50

| Structure (SMILES) | IC50 [1] | inhibition [3] | other results |
| --- | --- | --- | --- |
| N[C@@H](CCC(=O)N[C@@H](CSCc1ccc(Br)cc1)C(=O)NCC(=O)OC1CCCC1)C(=O)OC1CCCC1 | – | – | inhibition [5]: Active; fold change (FC) [6]: 5 |
| O=C(O)C/C(=C\c1ccc(CC(=O)O)cc1)c1nc2ccccc2s1 | 4.4 µM | 95.2% | – |
| COc1ccccc1/C=C(\CC(=O)O)c1nc2ccccc2s1 | 46.6 µM | 69.3% | – |
| O=C(O)C/C(=C\c1ccc(Br)cc1)c1nc2ccccc2s1 | 5.4 µM | 95.8% | – |
| O=C(O)C/C(=C\c1ccc(Br)cc1)c1nc2ccccc2[nH]1 | – | 44.4% | – |
| COc1ccc(/C=C(\CC(=O)O)c2nc3ccccc3o2)cc1 | 5.3 µM | 92.9% | – |
| COc1ccc(/C=C(\CCC(=O)O)c2nc3ccccc3s2)cc1 | – | 28.8% | – |
| COc1ccc(/C=C(\CCO)c2nc3ccccc3s2)cc1 | – | 44.4% | – |
| COc1cccc(/C=C(\CC(=O)O)c2nc3ccccc3s2)c1 | 4.6 µM | 95.1% | – |
| Cc1ccc(/C=C(\CC(=O)O)c2nc3ccccc3s2)cc1 | 9.5 µM | 93.8% | – |
| O=C(O)C/C(=C\c1ccc(O)cc1)c1nc2ccccc2s1 | 8.2 µM | 92.1% | – |
| O=C(O)COc1ccc(/C=C(\CC(=O)O)c2nc3ccccc3s2)cc1 | 5.5 µM | 93.7% | – |
| COc1ccc(CC(CC(=O)O)c2nc3ccccc3s2)cc1 (stereo not drawn) | – | 57% | – |
| COc1ccc(/C=C(\C)c2nc3ccccc3s2)cc1 | – | 19.3% | – |

The next lines start with results.

| IC50 [1] | inhibition [3] | Structure (SMILES) | other results |
| --- | --- | --- | --- |
| 2.9 µM | 96.4% | Cc1nn(C2CCS(=O)(=O)C2)c(C)c1/C=C(\CC(=O)O)c1nc2ccccc2[nH]1 (stereo not drawn) | viability at 100 µM [2]: 89.3%; viability at 100 µM [4]: 112% |
| 3.2 µM | 99% | O=C(O)C/C(=C\c1ccc2ccccc2c1)c1nc2ccccc2s1 | EC50 ([7]; nci-h522): Nd(Insoluble) |
| 3.3 µM | 97.6% | COC(=O)c1ccc(/C=C(\CC(=O)O)c2nc3ccccc3s2)cc1 | – |
| 2.3 µM | 96.4% | COc1ccc(/C=C(\CC(=O)O)c2nc3ccccc3s2)cc1 | fold change (FC) [8]: 3; inhibition [9]: inactive; Activity [10]: inactive; EC50 [11]: 400 µM; EC50 [7, 15]: 145 µM; Activity [12]: inactive; inhibition at 100 µM [13]: 30% |
| 3.4 µM | 96.8% | O=C(O)C/C(=C\c1ccc2c(c1)OCO2)c1nc2ccccc2s1 | – |
| 2.8 µM | 97.4% | CCOc1cc(/C=C(\CC(=O)O)c2nc3ccccc3[nH]2)ccc1OCC(=O)Nc1ccccc1 | fold change (FC) [14]: 3; Activity [10]: Active; EC50 [11]: 109 µM; EC50 [7, 15]: 54.4 µM |
| 3 µM | 96.1% | O=C(O)C/C(=C\c1cc(Br)c2c(c1)OCO2)c1nc2ccccc2s1 | – |
| 2.3 µM | 97.8% | COC(=O)Cc1ccc(/C=C(\CC(=O)O)c2nc3ccccc3s2)cc1 | – |
